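Following 48 hours of exposure in 96-well plates, responses at five concentrations were used to interpolate endpoints linearly. Here, GI50 denotes the concentration required for 50% inhibition of growth.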 Active and inactive are the calls of the source. No stated cut-off is given here; in the data, active = GI50 up to about 1.1 µM and inactive = higher.
Experiments:
Experiment in all cases: DTP human tumour cell line panel, 48 h
786-0 = test system: 786-0
A498 = test system: A498
A549 = test system: A549
ACHN = test system: ACHN
BT-549 = test system: BT-549
CAKI-1 = test system: CAKI-1
COLO 205 = test system: COLO 205
DU-145 = test system: DU-145
EKVX = test system: EKVX
HCC 2998 = test system: HCC 2998
HCT-116 = test system: HCT-116
HCT-15 = test system: HCT-15
HOP-92 = test system: HOP-92
HT-29 = test system: HT-29
Hs-578T = test system: Hs-578T
IGROV-1 = test system: IGROV-1
K562 = test system: K562
KM12 = test system: KM12
LOX IMVI = test system: LOX IMVI
M14 = test system: M14
MCF7 = test system: MCF7
MDA-MB-231 = test system: MDA-MB-231
MDA-MB-435 = test system: MDA-MB-435
MDA-N = test system: MDA-N
MOLT-4 = test system: MOLT-4
Malme-3M = test system: Malme-3M
NCI-H226 = test system: NCI-H226
NCI-H23 = test system: NCI-H23
NCI-H460 = test system: NCI-H460
NCI-H522 = test system: NCI-H522
NCI/ADR-RES = test system: NCI/ADR-RES
OVCAR-3 = test system: OVCAR-3
OVCAR-4 = test system: OVCAR-4
OVCAR-5 = test system: OVCAR-5
OVCAR-8 = test system: OVCAR-8
PC-3 = test system: PC-3
RXF 393 = test system: RXF 393
SF-268 = test system: SF-268
SF-295 = test system: SF-295
SF-539 = test system: SF-539
SK-MEL-28 = test system: SK-MEL-28
SK-MEL-2 = test system: SK-MEL-2
SK-MEL-5 = test system: SK-MEL-5
SK-OV-3 = test system: SK-OV-3
SN12C = test system: SN12C
SNB-19 = test system: SNB-19
SNB-75 = test system: SNB-75
SR = test system: SR
SW-620 = test system: SW-620
T47D = test system: T47D
TK-10 = test system: TK-10
U-251 = test system: U-251
UACC-257 = test system: UACC-257
UACC-62 = test system: UACC-62
UO-31 = test system: UO-31
CCRF-CEM = test system: CCRF-CEM
HL-60 = test system: HL-60
HOP-62 = test system: HOP-62
RPMI-8226 = test system: RPMI-8226

Measured: GI50

CC1(C)CC(=O)c2[nH]c3ccccc3c2CC(=O)NCCc2cn1cn2
> 100 µM: HCT-15
inactive: 786-0 18.6 µM | A498 > 100 µM | A549 > 100 µM | ACHN 61.1 µM | BT-549 > 100 µM | CAKI-1 > 100 µM | COLO 205 > 100 µM | DU-145 > 100 µM | EKVX > 100 µM | HCC 2998 > 100 µM | HCT-116 > 100 µM | HOP-92 36.5 µM | HT-29 > 100 µM | Hs-578T 33.5 µM | IGROV-1 > 100 µM | K562 > 100 µM | KM12 > 100 µM | LOX IMVI > 100 µM | M14 > 100 µM | MCF7 > 100 µM | MDA-MB-231 88.1 µM | MDA-MB-435 > 100 µM | MDA-N > 100 µM | MOLT-4 > 100 µM | Malme-3M > 100 µM | NCI-H226 > 100 µM | NCI-H23 > 100 µM | NCI-H460 > 100 µM | NCI-H522 > 100 µM | NCI/ADR-RES > 100 µM | OVCAR-3 > 100 µM | OVCAR-4 > 100 µM | OVCAR-5 > 100 µM | OVCAR-8 > 100 µM | PC-3 > 100 µM | RXF 393 73.8 µM | SF-268 > 100 µM | SF-295 82.8 µM | SF-539 > 100 µM | SK-MEL-28 > 100 µM | SK-MEL-2 > 100 µM | SK-MEL-5 > 100 µM | SK-OV-3 > 100 µM | SN12C > 100 µM | SNB-19 28 µM | SNB-75 > 100 µM | SR > 100 µM | SW-620 > 100 µM | T47D > 100 µM | TK-10 > 100 µM | U-251 56.6 µM | UACC-257 > 100 µM | UACC-62 > 100 µM | UO-31 > 100 µM

CC(Oc1ccccc1Cl)C(=O)NN1C(=O)CSC1c1ccccc1 (centres undefined)
inactive: 786-0 74.5 µM | A498 > 100 µM | A549 62.7 µM | ACHN > 100 µM | BT-549 > 100 µM | CAKI-1 > 100 µM | CCRF-CEM > 100 µM | COLO 205 > 100 µM | DU-145 > 100 µM | EKVX > 100 µM | HCC 2998 > 100 µM | HCT-116 34.9 µM | HL-60 28.2 µM | HOP-62 > 100 µM | HOP-92 57.3 µM | HT-29 > 100 µM | Hs-578T > 100 µM | IGROV-1 > 100 µM | K562 32.7 µM | KM12 > 100 µM | LOX IMVI > 100 µM | M14 > 100 µM | MCF7 92.3 µM | MDA-MB-231 > 100 µM | MDA-MB-435 75.3 µM | MDA-N 57.8 µM | MOLT-4 29.8 µM | NCI-H226 > 100 µM | NCI-H23 > 100 µM | NCI-H460 > 100 µM | NCI-H522 64.6 µM | NCI/ADR-RES > 100 µM | OVCAR-3 > 100 µM | OVCAR-4 > 100 µM | OVCAR-5 > 100 µM | OVCAR-8 > 100 µM | PC-3 > 100 µM | RPMI-8226 83 µM | RXF 393 61.2 µM | SF-268 > 100 µM | SF-295 68.7 µM | SF-539 > 100 µM | SK-MEL-28 > 100 µM | SK-MEL-2 > 100 µM | SK-MEL-5 > 100 µM | SK-OV-3 > 100 µM | SN12C 74.6 µM | SNB-19 > 100 µM | SNB-75 > 100 µM | SR 21.9 µM | SW-620 > 100 µM | T47D 63.4 µM | TK-10 > 100 µM | U-251 > 100 µM | UACC-257 > 100 µM | UACC-62 > 100 µM | UO-31 > 100 µM
> 100 µM: HCT-15

CC(=O)NC1C(OCc2ccccc2)OC(CO)C(O)C1OC(C)C(=O)NC(C(=O)N[C@@H](CCC(=O)NCCNCCNc1c2ccccc2nc2cccc([N+](=O)[O-])c12)C(N)=O)C(C)C (some centres undefined)
24.7 µM: HCT-15
inactive: 786-0 22.4 µM | A498 41.8 µM | A549 14.8 µM | ACHN 16.4 µM | BT-549 > 100 µM | CAKI-1 30.3 µM | CCRF-CEM 17.8 µM | COLO 205 20.1 µM | DU-145 33 µM | HCC 2998 21 µM | HCT-116 19.9 µM | HL-60 10.1 µM | HOP-62 30.1 µM | HOP-92 18.2 µM | Hs-578T > 100 µM | IGROV-1 33.6 µM | KM12 26.5 µM | LOX IMVI 29.2 µM | M14 15.4 µM | MCF7 6.7 µM | MDA-MB-231 70.6 µM | MDA-MB-435 14.1 µM | MDA-N 20.1 µM | MOLT-4 23.6 µM | Malme-3M 36.2 µM | NCI-H226 > 100 µM | NCI-H23 34 µM | NCI-H460 14.7 µM | NCI/ADR-RES 91.6 µM | OVCAR-3 25.8 µM | OVCAR-4 29.2 µM | OVCAR-8 19.6 µM | PC-3 28.4 µM | RPMI-8226 17.9 µM | SF-268 36.1 µM | SF-295 48.5 µM | SF-539 14.9 µM | SK-MEL-28 41.4 µM | SK-MEL-2 20 µM | SK-OV-3 > 100 µM | SN12C 20.9 µM | SNB-19 64.1 µM | SNB-75 77.4 µM | SR 1.78 µM | SW-620 13.2 µM | T47D 68.2 µM | TK-10 37.8 µM | U-251 65.8 µM | UO-31 21.7 µM
active: K562 0.0158 µM

Source: ChEMBL document CHEMBL1201862, “PubChem BioAssay data set” (2004)
